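Exposure lasted 48 hours, with cells grown in 96-well plates and compounds tested at five concentrations. GI50 = concentration required for 50% inhibition of growth.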 Activity calls are given as the source filed them. Rule as the data show it: active = GI50 up to about 1.1 µM and inactive = higher.
Key:
Experiment in all cases: DTP human tumour cell line panel, 48 h
CCRF-CEM = system: CCRF-CEM
DU-145 = system: DU-145
RXF 393 = system: RXF 393
A498 = system: A498
HT-29 = system: HT-29
TK-10 = system: TK-10
EKVX = system: EKVX
CAKI-1 = system: CAKI-1
SR = system: SR
SF-295 = system: SF-295
A549 = system: A549
OVCAR-5 = system: OVCAR-5
MDA-MB-435 = system: MDA-MB-435
SF-268 = system: SF-268
MDA-MB-231 = system: MDA-MB-231
NCI-H522 = system: NCI-H522
OVCAR-3 = system: OVCAR-3
SK-MEL-5 = system: SK-MEL-5
KM12 = system: KM12
ACHN = system: ACHN

Measured: GI50

CC1=Nn2c(nc3sc4c(c3c2=O)CCCC4)SC1
inactive: CCRF-CEM 35.3 µM | DU-145 > 86.1 µM | RXF 393 > 75.7 µM | A498 > 50.1 µM | HT-29 > 88.7 µM | TK-10 53.7 µM | EKVX > 69.5 µM | CAKI-1 > 100 µM | SR 57 µM | SF-295 > 100 µM | A549 > 83.6 µM | OVCAR-5 > 100 µM | MDA-MB-435 > 77.1 µM | SF-268 > 58.1 µM | MDA-MB-231 > 50.4 µM | NCI-H522 53.2 µM | OVCAR-3 76 µM | SK-MEL-5 62.4 µM | KM12 > 83.9 µM | ACHN > 51.6 µM

C[C@]12CC[C@H](O)CC1=CC[C@@H]1C2CC[C@]2(C)c3nn(-c4ccc(F)cc4)nc3CC12 (stereo partly drawn)
inactive: CCRF-CEM 58.1 µM | DU-145 88.3 µM | RXF 393 61.5 µM | A498 60.1 µM | HT-29 22.4 µM | TK-10 > 100 µM | EKVX > 100 µM | CAKI-1 > 100 µM | SR > 100 µM | SF-295 34 µM | A549 79.4 µM | OVCAR-5 67.1 µM | MDA-MB-435 87.3 µM | SF-268 73.8 µM | MDA-MB-231 > 100 µM | NCI-H522 58.3 µM | OVCAR-3 > 100 µM | SK-MEL-5 52.8 µM | KM12 24.3 µM | ACHN 33.1 µM

COC(=O)C1SC[C@H]2C(=O)N(c3ccccc3)C(=O)N12 (stereo partly drawn)
inactive: CCRF-CEM > 100 µM | DU-145 > 100 µM | RXF 393 > 100 µM | A498 21.4 µM | HT-29 > 100 µM | TK-10 > 100 µM | EKVX > 100 µM | CAKI-1 > 100 µM | SR > 100 µM | SF-295 > 100 µM | A549 > 100 µM | OVCAR-5 > 100 µM | MDA-MB-435 > 100 µM | SF-268 > 100 µM | MDA-MB-231 > 100 µM | NCI-H522 > 100 µM | OVCAR-3 > 100 µM | SK-MEL-5 > 100 µM | KM12 > 100 µM | ACHN > 100 µM

COc1ccc2c(=O)c3cc([N+](=O)[O-])ccc3n(C)c2c1
inactive: CCRF-CEM > 100 µM | DU-145 > 100 µM | RXF 393 > 100 µM | A498 > 100 µM | TK-10 > 100 µM | EKVX 6.37 µM | CAKI-1 > 100 µM | SR > 100 µM | SF-295 > 100 µM | A549 > 100 µM | OVCAR-5 > 100 µM | MDA-MB-435 > 100 µM | SF-268 > 100 µM | MDA-MB-231 > 100 µM | NCI-H522 > 100 µM | OVCAR-3 > 100 µM | SK-MEL-5 > 100 µM | KM12 > 100 µM | ACHN > 100 µM

C(=N\N=C1NCCN1)/c1ccc2ccccc2c1
inactive: CCRF-CEM 8.59 µM | DU-145 31.2 µM | RXF 393 17.7 µM | A498 14 µM | HT-29 14.5 µM | TK-10 12.4 µM | EKVX 12.6 µM | CAKI-1 9.02 µM | SR 12.9 µM | SF-295 14.9 µM | A549 14.4 µM | OVCAR-5 18.7 µM | MDA-MB-435 15.6 µM | SF-268 17.9 µM | MDA-MB-231 16.4 µM | NCI-H522 13.1 µM | OVCAR-3 16.1 µM | SK-MEL-5 13.2 µM | KM12 14.9 µM | ACHN 16.5 µM

O=C(ON=C1c2ccccc2C(Br)C(Br)c2ccccc21)c1ccccc1 (stereo not drawn)
active: CCRF-CEM 0.673 µM
inactive: DU-145 17.5 µM | RXF 393 14.1 µM | A498 25.2 µM | HT-29 17.1 µM | TK-10 15.8 µM | EKVX 23.1 µM | CAKI-1 9.48 µM | SR 3.09 µM | SF-295 18.5 µM | A549 20.6 µM | OVCAR-5 18.8 µM | MDA-MB-435 17.3 µM | SF-268 20.7 µM | MDA-MB-231 16.7 µM | NCI-H522 1.69 µM | OVCAR-3 14.8 µM | SK-MEL-5 17.1 µM | KM12 17.9 µM | ACHN 17.7 µM

CC1(C)CCCCCCCCCC(C)(CCCO)C1=O (stereo not drawn)
inactive: CCRF-CEM 28.9 µM | DU-145 17.2 µM | RXF 393 19.7 µM | A498 18.5 µM | HT-29 13.7 µM | EKVX 15.8 µM | CAKI-1 17.7 µM | SR 35.2 µM | SF-295 18.6 µM | A549 15.5 µM | OVCAR-5 15.5 µM | MDA-MB-435 18.2 µM | SF-268 18.2 µM | MDA-MB-231 15.2 µM | NCI-H522 15.4 µM | OVCAR-3 19.6 µM | SK-MEL-5 17.5 µM | KM12 18.4 µM | ACHN 17.9 µM

COc1cc2c(cc1OCCCC(=O)Nc1cc(C(=O)Nc3cc(C(=O)NCCCN(C)C)n(C)n3)n(C)n1)N=CC1CCCN1C2=O (stereo not drawn)
active: A498 0.411 µM
inactive: CCRF-CEM 12.5 µM | DU-145 16.4 µM | RXF 393 16.7 µM | HT-29 17 µM | TK-10 19.7 µM | EKVX 34 µM | CAKI-1 16.8 µM | SR 12.9 µM | SF-295 36.1 µM | A549 36.1 µM | OVCAR-5 19.4 µM | MDA-MB-435 16.8 µM | SF-268 18.3 µM | MDA-MB-231 20 µM | NCI-H522 7 µM | OVCAR-3 18.5 µM | SK-MEL-5 15 µM | KM12 34.9 µM | ACHN 16.2 µM

CC(/C=N/N(C)C1=NCCCN1)=N/N(C)C1=NCCCN1
inactive: CCRF-CEM > 100 µM | DU-145 > 100 µM | RXF 393 > 100 µM | A498 > 100 µM | HT-29 > 100 µM | TK-10 > 100 µM | EKVX > 100 µM | CAKI-1 > 100 µM | SR > 100 µM | SF-295 > 100 µM | A549 > 100 µM | OVCAR-5 > 100 µM | MDA-MB-435 > 100 µM | SF-268 > 100 µM | MDA-MB-231 > 100 µM | NCI-H522 > 100 µM | OVCAR-3 > 100 µM | SK-MEL-5 > 100 µM | KM12 > 100 µM | ACHN > 100 µM

CC(=O)OCC12C(OC(C)=O)C(=O)C3C(OC(C)=O)C14OC3(C)COC(=O)c1cccnc1C(C)C(C)C(=O)OC(C(OC(C)=O)C2OC(C)=O)C4(C)O (stereo not drawn)
inactive: CCRF-CEM > 100 µM | DU-145 > 100 µM | RXF 393 > 100 µM | A498 > 100 µM | HT-29 > 100 µM | TK-10 > 100 µM | EKVX > 100 µM | CAKI-1 > 100 µM | SR 42.6 µM | SF-295 > 100 µM | A549 > 100 µM | OVCAR-5 > 100 µM | MDA-MB-435 > 100 µM | SF-268 > 100 µM | MDA-MB-231 > 100 µM | NCI-H522 > 100 µM | OVCAR-3 > 100 µM | SK-MEL-5 > 100 µM | KM12 > 100 µM | ACHN > 100 µM
